Test results published in ChEMBL document CHEMBL1127033, “Synthesis and anti-HIV-1 activity of a series of imidazo[1,5-b]pyridazines” (J Med Chem, 1993).
Where “and” joins values, the source holds several entries; their conditions need not be identical. Identical values can stand only once.

Legend:
MT4 [1] = test: Inhibition of growth in uninfected MT-4 cells in MTM assay; format: functional, cell-based; settings: Homo sapiens
[2] = target: T1, Human immunodeficiency virus type 1 reverse transcriptase (Human immunodeficiency virus 1, UniProt Q72547); test: In vitro inhibitory concentration against reverse transcriptase of HIV-1 (RT)
C8166 [3] = test: Inhibition of p24 antigen formation in infected C8166-cells; format: functional, cell-based; settings: Homo sapiens
C8166 [4] = test: Inhibition of syncytia formation in infected C8166-cells; format: functional, cell-based; settings: Homo sapiens
[5] = tested on: Human immunodeficiency virus 1; test: (§1) Inhibition of HIV-1 (strain A17)-infected MT-4 cells; format: functional, organism-based; settings: Human immunodeficiency virus 1, MT4
[6] = target: T1, Human immunodeficiency virus type 1 reverse transcriptase; test: Inhibition of reverse transcriptase of HIV-1 (strain RF)-infected MT-4 cells in RPMI 1640 growth medium in MTM assay; Toxic; format: cell-based; settings: mt4
[7] = target: T1, Human immunodeficiency virus type 1 reverse transcriptase; test: Inhibition of reverse transcriptase activity of HIV-1 in the presence of [alpha35 S] TTP as cosubstrate.
MT4 [8] = test: as §1; format: functional, cell-based; settings: Homo sapiens

COc1ccc2c(C)nc(CCCCCCC(=O)c3ccccc3)n2n1
IC50 (MT4 [1]): 250000 nM | IC50 [2]: 640 nM

CSc1ccc2c(C)nc(CCCCCCC(=O)c3ccccc3)n2n1
IC50 (MT4 [1]): 27000 nM | IC50 [2]: 80 nM

Cc1nc(CCCCCCC(O)c2ccccc2)n2nc(-n3ccnc3)ccc12 (stereo unspecified)
EC50 (C8166 [3]): 4 nM | IC50 (MT4 [1]): 26000 nM | EC50 (C8166 [4]): 6 nM | IC50 [2]: 230 nM

Cc1nc(CCCCCCC(=O)c2ccccc2)n2nc(-n3ccnc3C)ccc12
IC50 (MT4 [1]): 260000 nM | IC50 [2]: 2500 nM

CCc1nc(CCCCCCC(=O)c2ccccc2)n2nc(Cl)ccc12
IC50 (MT4 [1]): 25000 nM | IC50 [2]: 2000 nM

Cc1nc(CCCCCOC(=O)C2CCCC2)n2nc(Cl)ccc12
IC50 (MT4 [1]): 250000 nM | IC50 [2]: 22000 nM

Cc1nc(CCCCCC(=O)c2ccccc2)n2nc(Cl)ccc12
IC50 (MT4 [1]): 250000 nM | IC50 [2]: 4800 nM

Cc1nc(CCCCCCC(=O)c2ccccc2)n2nc(Cl)ccc12
EC50 (C8166 [3]): 80 nM | IC50 (MT4 [1]): 25000 nM | EC50 (C8166 [4]): 80 nM | IC50 [2]: 840 nM

CNc1ccc2c(C)nc(CCCCCCC(=O)c3ccccc3)n2n1
IC50 (MT4 [1]): 25000 nM | IC50 [2]: 3400 nM

Cc1nc(CCCCCCC(O)c2ccccc2)n2nc(Cl)ccc12 (stereo unspecified)
EC50 (C8166 [3]): < 80 nM | IC50 (MT4 [1]): 250000 nM | EC50 (C8166 [4]): < 80 nM | IC50 [2]: 380 nM

O=C(CCCCCCc1ncc2ccc(Cl)nn12)c1ccccc1
EC50 (C8166 [3]): 340 nM | IC50 (MT4 [1]): 25000 nM | EC50 (C8166 [4]): 210 nM | IC50 [2]: 340 nM

Cc1nc(CCCCCCC(=O)c2ccccc2)n2nc(-n3cccc3)ccc12
EC50 (C8166 [3]): 5 nM | IC50 (MT4 [1]): 26000 nM | EC50 (C8166 [4]): 7 nM | IC50 [2]: 80 nM

Cc1nc(CCCCCCC(=O)c2ccccc2)n2nc(-n3cncn3)ccc12
IC50 (MT4 [1]): 26000 nM | IC50 [2]: 100 nM

CC(=O)OCCCCCc1nc(C)c2ccc(Cl)nn12
IC50 [2]: 110000 nM

Cc1nc(CCCCCCC(=O)c2ccccc2)n2nc(-n3cnnc3)ccc12
IC50 (MT4 [1]): 260000 nM | IC50 [2]: 2600 nM

Cc1nc(CCCCCCCC(=O)c2ccccc2)n2nc(Cl)ccc12
IC50 (MT4 [1]): 250000 nM | IC50 [2]: 3000 nM

Cc1cn(-c2ccc3c(C)nc(CCCCCCC(=O)c4ccccc4)n3n2)cn1
EC50 (C8166 [3]): 160 nM | IC50 (MT4 [1]): 260000 nM | EC50 (C8166 [4]): 65 nM | IC50 [2]: 550 nM

Cc1nc(CCCCCCC(=O)c2ccccc2)n2nc(N3CCCCC3)ccc12
IC50 [2]: 6700 nM

Cc1nc(CCCCCC(=O)Cc2ccccc2)n2nc(Cl)ccc12
IC50 (MT4 [1]): 28000 nM | IC50 [2]: 3900 nM

Cc1nc(CCCCCO)n2nc(Cl)ccc12
IC50 [2]: > 100000 nM

Cc1nc(CCCCCCC(=O)c2ccccc2)n2nc(-n3ccnc3)ccc12
EC50 (C8166 [3]): 5 nM | IC50 (MT4 [1]): 26000 nM | EC50 (C8166 [4]): 0.6 nM | IC50 [2]: 0.6 nM | EC50 [5]: 1900 nM

Cc1nc(CCCCCCC(=O)c2ccccc2)n2nc(-n3cccn3)ccc12
IC50 (MT4 [1]): 26000 nM | IC50 [2]: 3400 nM

Cc1nc(CCCCCOC(=O)c2ccccc2)n2nc(Cl)ccc12
EC50 (C8166 [3]): 1100 nM | IC50 (MT4 [1]): > 25000 nM | EC50 (C8166 [4]): 1600 nM | IC50 [2]: 1340 nM and 1300 nM

Cc1nc(CCCCCCC(=O)c2ccccc2)n2nc(-n3nccn3)ccc12
IC50 (MT4 [1]): 260000 nM | IC50 [2]: 1300 nM

Cc1nc(CCCCCCC(=O)c2ccccc2)n2nc(N)ccc12
IC50 (MT4 [1]): 30000 nM | IC50 [2]: 3000 nM

Cc1nc(CCCCCCC(=O)c2ccccc2)n2ncccc12
IC50 (MT4 [1]): 280000 nM | IC50 [2]: 560 nM

Cc1nc(CCCCCCCc2ccccc2)n2nc(Cl)ccc12
IC50 (MT4 [1]): 250000 nM | IC50 [2]: 14000 nM

Cc1nc(CCCCCCC(=O)c2ccccc2)n2nc(N3CCCC3)ccc12
EC50 [6]: Toxic | IC50 (MT4 [1]): < 30 nM | IC50 [2]: 50 nM

Cc1nc(CCCCCCC(=O)c2ccccc2)n2nc(N(C)C)ccc12
IC50 (MT4 [1]): 27000 nM | IC50 [2]: 270 nM

CC(C)c1nc(CCCCCCC(=O)c2ccccc2)n2nc(Cl)ccc12
IC50 [2]: 110000 nM

Cc1nc(CCCCCCC(=O)c2ccccc2)n2nc(-n3cncc3C)ccc12
EC50 (C8166 [3]): 30 nM | IC50 (MT4 [1]): 26000 nM | EC50 (C8166 [4]): 10 nM | IC50 [2]: 100 nM

Cc1nc(CCCCCCC(=O)c2ccccc2)n2nc(-n3ccnn3)ccc12
IC50 (MT4 [1]): 26000 nM | IC50 [2]: 640 nM

Cc1nc(CCCCCOCc2ccccc2)n2nc(Cl)ccc12
EC50 (C8166 [3]): 380 nM | IC50 (MT4 [1]): 290000 nM | EC50 (C8166 [4]): 580 nM | IC50 [2]: 2300 nM

CCc1cc(NCc2nc3c(Cl)ccc(Cl)c3o2)c(O)nc1C [L-697661]
EC50 (C8166 [3]): 7 nM | IC50 [7]: 850 nM | EC50 (C8166 [4]): 7 nM | EC50 (MT4 [8]): > 10000 nM

Cc1cn([C@H]2C[C@H](N=[N+]=[N-])[C@@H](CO)O2)c(=O)[nH]c1=O [ZIDOVUDINE]
EC50 (C8166 [3]): 20 nM | EC50 (C8166 [4]): 30 nM | EC50 [5]: 10 nM
